Consider one sequence from paper PMC10818749, “Toxicity Studies of Cardiac-Targeting Peptide Reveal a Robust Safety Profile” (Pharmaceutics, 2024).

Ends that are not written are not given here.

For one assay, the target named is OPRM1 (Homo sapiens, UniProt P35372). Put plainly: OPRM1 GPCR cAMP modulation assay. Type of assay: cell-based. As to the method: GPCR cAMP Modulation Assays: cAMP Hunter cell lines were grown, plated, and subjected to Eurofins’ DiscoverX HitHunter cAMP XS+ assay. Gs agonist activity, Gi agonist activity, and antagonist activity-induced assays were read using chemiluminescent signal detection. The percentage of activity was calculated for Gs and Gi agonist assays, and the percentage of inhibition was calculated for Gs antagonist assays. […]
cAMP Second ary Messenger Assay pound results in the release of calcium from intracellular stores and DiscoverX has developed a panel of cell lines stably expressing non- an increase in dye fluorescence that is measured in real-time. tagged GPCRs that endogenously signal through cAMP. […]
The enzyme is split into two complementary portions: Enzyme Ac-ceptor (EA) and Enzyme Donor (ED). […] Active enzyme can then convert a chemilumines-cent substrate, generating an output signal detectable on a standard The NHR is tagged with the ProLink™ (PK) component of our EFC microplate reader. assay system, and the SRCP domain is fused to the Enzyme Ac-ceptor component (EA) expressed in the nucleus. […]

For a further assay, the target named is HEK-Cav1.2 (Homo sapiens, UniProt Q13936). Particulars: CTP 0.1 to 30 µM; HEK cells; -100mV to +20mV; 0.1% Pluronic F-68.
A further assay has as its target T1, COX1 (Homo sapiens, UniProt P23219).
T1 construct: purchased BPS Bioscience
Put plainly: COX1 enzymatic assay. It counts as biochemical. Particulars: up to 30 µM. As to the method:
Enzymatic Assays: AChE, COX1, COX2, MAOA, PDE3A, and PDE4D2 activity assays were performed to determine CTP effects on each individual enzyme. Fluorescence was read using a PerkinElmer Envision, and percentage inhibition and compound activity calculated. […]
in complementation with EA generating a unit of active β-gal and based assay for the detection of dopamine, norepinephrine or sero-production of a chemiluminescent signal upon the addition of Path- tonin transporter activity in cells expressing these transporters. The Hunter detection reagents. kit employs a fluorescent substrate that mimics the biogenic amine neurotransmitters that are taken into the cell through these specific transporters, resulting in increased intracellular fluorescence inten-sity. […]
KINOMEscan® Assay fluorescence for improved signal/noise ratio. […]
Compounds that bind the kinase active site and directly (sterically) be monitored within a single experiment. or indirectly (allosterically) prevent kinase binding to the immobi-lized ligand, will reduce the amount of kinase captured on the solid Calcium Assay […]
kinase have no effect on the amount of kinase captured on the of changes in intracellular calcium. […] Upon stimulation, a quantitative, precise and ultra-sensitive qPCR method that detects the receptor signals release of intracellular calcium, which results in the associated DNA label (D). […]

T1 sequence (P23219 24-599): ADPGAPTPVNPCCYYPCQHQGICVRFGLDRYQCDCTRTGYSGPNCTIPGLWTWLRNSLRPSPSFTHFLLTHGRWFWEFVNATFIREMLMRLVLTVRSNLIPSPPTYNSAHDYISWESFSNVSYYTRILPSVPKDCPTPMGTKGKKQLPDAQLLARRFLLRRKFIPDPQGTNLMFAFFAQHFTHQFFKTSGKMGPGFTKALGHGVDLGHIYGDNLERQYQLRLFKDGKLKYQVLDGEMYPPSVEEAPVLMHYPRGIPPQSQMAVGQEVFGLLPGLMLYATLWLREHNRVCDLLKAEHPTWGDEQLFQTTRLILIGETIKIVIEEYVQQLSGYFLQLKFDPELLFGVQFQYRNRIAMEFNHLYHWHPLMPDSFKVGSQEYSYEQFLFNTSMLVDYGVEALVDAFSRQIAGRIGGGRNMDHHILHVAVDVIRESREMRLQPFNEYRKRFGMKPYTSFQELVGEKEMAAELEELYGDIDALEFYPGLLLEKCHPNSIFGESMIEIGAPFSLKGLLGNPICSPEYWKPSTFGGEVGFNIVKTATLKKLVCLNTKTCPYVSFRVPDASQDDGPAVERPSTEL
Chain of OPRM1 (P35372 whole entry): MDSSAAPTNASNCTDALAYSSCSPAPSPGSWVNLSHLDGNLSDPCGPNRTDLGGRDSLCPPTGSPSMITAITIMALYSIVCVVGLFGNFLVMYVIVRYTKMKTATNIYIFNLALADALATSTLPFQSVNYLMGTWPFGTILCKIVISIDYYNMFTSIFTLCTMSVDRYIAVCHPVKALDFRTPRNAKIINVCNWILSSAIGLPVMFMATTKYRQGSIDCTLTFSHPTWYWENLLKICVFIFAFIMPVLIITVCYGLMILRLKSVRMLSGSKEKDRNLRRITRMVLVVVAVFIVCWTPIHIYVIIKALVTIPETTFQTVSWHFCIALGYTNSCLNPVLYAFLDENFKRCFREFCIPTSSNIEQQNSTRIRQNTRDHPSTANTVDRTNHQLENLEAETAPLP
Chain of HEK-Cav1.2 (Q13936 whole entry): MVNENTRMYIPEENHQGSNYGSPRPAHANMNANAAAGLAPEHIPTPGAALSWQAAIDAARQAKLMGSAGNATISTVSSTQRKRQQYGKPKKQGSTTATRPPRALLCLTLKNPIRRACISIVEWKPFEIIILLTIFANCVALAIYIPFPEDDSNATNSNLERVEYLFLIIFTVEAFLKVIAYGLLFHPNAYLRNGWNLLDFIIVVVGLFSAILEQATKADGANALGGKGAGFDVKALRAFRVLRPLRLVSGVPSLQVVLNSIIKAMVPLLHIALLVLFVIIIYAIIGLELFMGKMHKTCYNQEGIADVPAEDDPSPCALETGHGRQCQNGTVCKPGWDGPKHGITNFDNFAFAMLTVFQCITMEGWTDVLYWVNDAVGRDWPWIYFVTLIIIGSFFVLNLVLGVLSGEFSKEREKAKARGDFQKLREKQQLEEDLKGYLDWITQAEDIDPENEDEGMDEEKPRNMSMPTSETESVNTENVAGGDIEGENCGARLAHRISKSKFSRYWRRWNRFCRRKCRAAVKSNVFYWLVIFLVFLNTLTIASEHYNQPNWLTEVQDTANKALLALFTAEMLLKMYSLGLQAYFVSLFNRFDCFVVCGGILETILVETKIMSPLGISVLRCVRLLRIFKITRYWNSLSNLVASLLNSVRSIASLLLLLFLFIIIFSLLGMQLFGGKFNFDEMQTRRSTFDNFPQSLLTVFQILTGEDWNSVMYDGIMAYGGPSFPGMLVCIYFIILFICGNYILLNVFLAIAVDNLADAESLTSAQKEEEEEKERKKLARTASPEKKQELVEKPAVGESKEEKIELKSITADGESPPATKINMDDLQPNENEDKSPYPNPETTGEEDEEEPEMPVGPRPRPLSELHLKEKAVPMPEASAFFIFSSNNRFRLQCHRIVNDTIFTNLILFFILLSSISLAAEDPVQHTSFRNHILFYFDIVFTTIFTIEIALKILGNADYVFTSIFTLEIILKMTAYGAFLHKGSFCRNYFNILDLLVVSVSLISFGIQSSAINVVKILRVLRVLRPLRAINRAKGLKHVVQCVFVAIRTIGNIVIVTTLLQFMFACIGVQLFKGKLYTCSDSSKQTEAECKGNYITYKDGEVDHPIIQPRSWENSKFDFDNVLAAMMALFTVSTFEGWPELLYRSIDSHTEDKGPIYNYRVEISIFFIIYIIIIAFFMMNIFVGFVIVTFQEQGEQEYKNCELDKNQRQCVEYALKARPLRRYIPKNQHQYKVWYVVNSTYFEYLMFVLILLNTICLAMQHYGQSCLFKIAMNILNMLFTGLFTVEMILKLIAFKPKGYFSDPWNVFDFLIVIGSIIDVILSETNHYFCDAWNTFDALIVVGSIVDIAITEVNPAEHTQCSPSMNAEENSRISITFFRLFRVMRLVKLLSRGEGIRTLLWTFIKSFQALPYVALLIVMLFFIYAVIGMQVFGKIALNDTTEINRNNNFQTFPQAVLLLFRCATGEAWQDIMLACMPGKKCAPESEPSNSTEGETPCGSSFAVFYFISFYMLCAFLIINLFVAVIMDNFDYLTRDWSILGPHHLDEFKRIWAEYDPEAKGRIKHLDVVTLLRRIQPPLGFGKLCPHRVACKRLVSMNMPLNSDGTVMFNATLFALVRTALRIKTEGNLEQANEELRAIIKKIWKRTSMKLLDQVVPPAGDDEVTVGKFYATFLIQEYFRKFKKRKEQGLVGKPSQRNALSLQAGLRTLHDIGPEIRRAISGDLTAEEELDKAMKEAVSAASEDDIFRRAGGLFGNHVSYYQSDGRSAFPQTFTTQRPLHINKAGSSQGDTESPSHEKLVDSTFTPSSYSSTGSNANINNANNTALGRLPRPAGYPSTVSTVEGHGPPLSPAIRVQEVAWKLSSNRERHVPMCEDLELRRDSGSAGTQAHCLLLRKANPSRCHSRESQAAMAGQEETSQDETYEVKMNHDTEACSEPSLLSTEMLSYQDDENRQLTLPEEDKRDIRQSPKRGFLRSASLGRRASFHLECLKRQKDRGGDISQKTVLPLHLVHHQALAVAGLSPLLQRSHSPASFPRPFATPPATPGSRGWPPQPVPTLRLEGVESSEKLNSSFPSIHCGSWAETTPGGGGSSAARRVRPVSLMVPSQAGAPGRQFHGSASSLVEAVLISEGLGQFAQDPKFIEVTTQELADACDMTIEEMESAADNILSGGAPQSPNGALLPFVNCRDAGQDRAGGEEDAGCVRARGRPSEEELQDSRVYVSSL
Chain of HEK-Cav1.2 (Q08289 whole entry partner): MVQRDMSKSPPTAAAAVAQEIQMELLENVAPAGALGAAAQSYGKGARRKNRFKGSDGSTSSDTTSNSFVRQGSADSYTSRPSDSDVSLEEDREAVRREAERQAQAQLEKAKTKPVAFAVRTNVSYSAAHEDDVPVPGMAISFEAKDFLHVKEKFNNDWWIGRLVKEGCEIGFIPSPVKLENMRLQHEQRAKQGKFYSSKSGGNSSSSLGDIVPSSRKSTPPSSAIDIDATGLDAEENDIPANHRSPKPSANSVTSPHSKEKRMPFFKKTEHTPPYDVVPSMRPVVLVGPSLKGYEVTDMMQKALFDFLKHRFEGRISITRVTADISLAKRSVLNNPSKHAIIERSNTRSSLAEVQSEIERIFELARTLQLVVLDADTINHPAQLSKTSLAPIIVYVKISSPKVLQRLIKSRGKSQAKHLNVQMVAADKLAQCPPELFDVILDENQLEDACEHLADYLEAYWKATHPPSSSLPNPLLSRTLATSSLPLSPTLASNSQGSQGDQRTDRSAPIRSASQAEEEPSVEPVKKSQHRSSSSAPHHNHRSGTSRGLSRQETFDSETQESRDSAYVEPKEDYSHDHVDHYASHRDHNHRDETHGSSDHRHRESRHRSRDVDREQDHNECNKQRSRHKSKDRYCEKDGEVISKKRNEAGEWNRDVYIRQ
Chain of HEK-Cav1.2 (P54289 25-946 partner limits assumed): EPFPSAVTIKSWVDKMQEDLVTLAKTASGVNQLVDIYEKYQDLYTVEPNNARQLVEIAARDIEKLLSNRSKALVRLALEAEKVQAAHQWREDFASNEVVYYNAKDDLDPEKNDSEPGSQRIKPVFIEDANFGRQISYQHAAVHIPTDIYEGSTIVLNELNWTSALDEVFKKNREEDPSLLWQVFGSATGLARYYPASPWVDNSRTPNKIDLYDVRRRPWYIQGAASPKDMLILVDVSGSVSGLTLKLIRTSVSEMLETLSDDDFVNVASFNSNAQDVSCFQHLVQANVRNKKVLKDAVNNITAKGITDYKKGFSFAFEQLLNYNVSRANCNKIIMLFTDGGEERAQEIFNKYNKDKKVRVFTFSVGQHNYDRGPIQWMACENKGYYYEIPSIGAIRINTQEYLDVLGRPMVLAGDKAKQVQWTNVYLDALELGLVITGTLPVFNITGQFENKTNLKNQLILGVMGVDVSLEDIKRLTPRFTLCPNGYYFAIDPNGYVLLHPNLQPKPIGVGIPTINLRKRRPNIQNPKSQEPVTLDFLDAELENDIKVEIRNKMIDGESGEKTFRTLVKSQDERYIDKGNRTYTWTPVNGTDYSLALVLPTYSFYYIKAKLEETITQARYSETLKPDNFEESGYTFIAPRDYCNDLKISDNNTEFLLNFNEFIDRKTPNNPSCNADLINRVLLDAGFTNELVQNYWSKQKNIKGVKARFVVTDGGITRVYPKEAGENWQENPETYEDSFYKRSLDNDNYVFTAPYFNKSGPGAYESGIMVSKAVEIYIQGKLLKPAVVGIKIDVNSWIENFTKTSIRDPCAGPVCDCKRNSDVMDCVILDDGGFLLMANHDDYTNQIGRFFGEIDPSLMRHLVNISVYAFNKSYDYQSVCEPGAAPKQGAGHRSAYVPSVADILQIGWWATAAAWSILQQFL
Chain of HEK-Cav1.2 (P54289 947-1103 partner limits assumed): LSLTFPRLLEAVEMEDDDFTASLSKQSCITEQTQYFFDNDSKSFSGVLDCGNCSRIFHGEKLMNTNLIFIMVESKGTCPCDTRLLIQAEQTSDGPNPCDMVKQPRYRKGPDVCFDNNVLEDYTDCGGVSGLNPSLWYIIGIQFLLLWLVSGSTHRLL

For the sequence APWHLSSQYSRT [CTP], the antagonist action entry on OPRM1 was “no antagonist action”. The “Estimated IC50” value at HEK-Cav1.2 is listed as “N/C (Not calculable, inhibition >25% was not observed.)”. Also, at COX1, the inhibition result is “some inhibition of COX1 was noted, although it did not reach the set significance threshold”.
